For test [1], the system named is Xanthomonas campestris p.v. phaseoli. Description: Effect of the antipathogenic protein on bacterial pathogens (growth inhibition). The format is cell-based. As to conditions: concentration where the bacteria growth is inhibit in a 50%; ± standard deviation.
For test [2], the system named is Phytophthora infestans. The format is cell-based. As to conditions: different concentrations.
The test system of test [3] is Erwinia chrysanthemi p.v. zea. Description: Effect of the antipathogenic protein on bacterial pathogens (growth inhibition). Format: cell-based. As to conditions: concentration where the bacteria growth is inhibit in a 50%; ± standard deviation.
Test [4] relates to Pseudomonas syringae p.v. syringae. The test is described as above. Format: cell-based. As to conditions: concentration where the bacteria growth is inhibit in a 50%; ± standard deviation.
Test [5] deals with Pseudomonas avenae. The test is described as above. Format: cell-based. As to conditions: concentration where the bacteria growth is inhibit in a 50%; ± standard deviation.
The subject of test [6] is Erwinia carotovorum p.v. carotovora. Described as above. The format is cell-based. As to conditions: concentration where the bacteria growth is inhibit in a 50%; ± standard deviation.
For test [7], the system named is Cándida albicans. As to conditions: cited from earlier work.
Test [8] concerns several plant pathogens. Format: cell-based.

On to “NmDef-02: new anti-pathogenic small cysteine rich protein isolated from Nicotiana megalosiphon; also chemically synthesized without the signal peptide (RECKAQGRHTTCFRDANCVQVCEKQAGWSHGDCRAQFKCKCIFEC; Nicotiana megalosiphon)”, for which the IC50 came out at 40 ± 3 µM in test [1]; 11 ± 8 µM in test [3]; 26 ± 6 µM in test [4]; 17 ± 5 µM in test [5]; 86 ± 8 µM in test [6]. For the same molecule, the “inhibition of the growth of P. infestans” value in test [2] (FIG. 4B) is listed as “high levels of inhibition growth”.
As for “SEQ ID No. 9: fragment of the antipathogenic protein NmDef-02 obtained by chemical synthesis (QAGWSHGDCRAQFKCKCIFEC; Nicotiana megalosiphon)”, the “effect of fragments on the pathogen P. infestans” value in test [2] (FIG. 6) is listed as “control or inhibition of pathogen”.
Take “Rs-AFP2: plant anti-pathogenic protein from the literature (QKLCQRPSGTWSGVCGNNNACKNQCIRLEKARHGSCNYVFPAHKCICYFPC; UniProt P30230 30-80, looked up)”: the “activity against Cándida albicans” value in test [7] is “active in micromolar concentrations”.

B1: NmDef-Plus: antipathogenic protein fused to the signal peptide of the Saccharomyces cerevisiae alpha factor, expressed in Pichia pastoris (protein)
chain: APVNTTTEDETAQIPAEAVIGYSDLEGDFDVAVLPFSNSTNNGLLFINTTIASIAAKEEGVSRECKAQGRHTTCFRDANCVQVCEKQAGWSHGDCRAQFKCKCIFEC
Take B1: the “inhibition of the growth of plant pathogens” value in test [8] is reported as “high levels of inhibition growth”.

Values taken from patent US9055744B2 (priority 2008, dated 2015).
